Reference: US20170157251A1, “Bi-Specific Monovalent Diabodies That are Capable of Binding CD19 and CD3, and Uses Thereof” (MacroGenics, Inc., priority 2015, published 2017)

Assays:
Raji/GF cells = experiment: Redirected killing of target tumor cells using human T cells, Raji/GF; assay type: cell-based; details: HBL-2, Raji/GF, Jeko-1; E:T 10:1
CD20+ B cells [1] = experiment: Autologous B cell depletion in human PBMCs; assay type: cell-based
Source text: (§1) Potential differences in CD19 expression levels between human and cynomolgus monkey B cells may be another variable factor contributing to the apparent difference in potency.

CD20+ B cells [2] = experiment: Autologous B cell depletion in cynomolgus monkey PBMCs; assay type: cell-based
Source text: as §1

human T cells = experiment: Cytokine release by human T cells in the presence of Raji/GF target cells (ELISA); assay type: cell-based; details: co-incubation with Raji/GF target cells
[3] = system: human CD4+ and CD8+ T cells; experiment: Human T cell activation (CD25, CD69) during redirected killing of Raji/GF cells; assay type: cell-based; details: Raji/GF target cells
Source text: (§2) The effect on T cells during DART-A-mediated redirected target cell (Raji/GF cells) lysis was characterized by evaluating expression of the T cell activation markers CD69 and CD25.

[4] = system: cynomolgus monkey CD4+ and CD8+ T cells; experiment: Cynomolgus monkey T cell activation (CD25, CD69) during redirected killing of Raji/GF cells; assay type: cell-based; details: Raji/GF target cells
Source text: as §2

[5] = system: human T cells with JIMT-1 cells; experiment: Human T cell activation in the presence of CD19-negative JIMT-1 cells; assay type: cell-based
[6] = system: human CD8+ and CD4+ T cells; experiment: Intracellular granzyme B and perforin in T cells in CTL assay; assay type: cell-based; details: 24 hours, Raji/GF target cells, E:T 10:1
Source text: Of note, the upregulation of granzyme B (FIG. 15A) and perforin (FIG. 15B) was higher in CD8+ T cells compared with CD4+ T cells, consistent with the expected higher CTL potency of CD8+ T cells.

[7] = system: CFSE-labeled human T cells; experiment: Proliferation of CFSE-labeled human T cells co-cultured with HBL-2 target cells; assay type: cell-based; details: 200 ng/mL, E:T 10:1, 72 hours
Method: The expansion of T cells during effector:target cell co-engagement by […] was also evaluated, given that proliferation concomitant with T cell activation has been previously reported. […] Proliferation of CFSE-labeled T cells was monitored by levels of CFSE dilution over time by FACS analysis (FIGS. 16A-16B).

HBL-2 tumor cells [8] = experiment: HBL-2 co-mix xenograft with activated human T cells; assay type: in vivo, NOD/SCID mice; details: by Day 13
Source text: (§3) In both studies, human T cells and tumor cells (HBL-2 or Raji) were combined at a ratio of 1:5 (1×10^6 and 5×10^6 cells, respectively) and injected SC into mice on Day 0.

Raji tumor cells = experiment: Raji co-mix xenograft with activated human T cells; assay type: in vivo, NOD/SCID mice; details: end of the study (Day 28)
Source text: as §3

HBL-2 tumor cells [9] = experiment: Established HBL-2 xenograft model with human PBMCs; assay type: in vivo, NSG B2m−/− mice
Source text: Mice were implanted with HBL-2 tumor cells (5×10^6 cells) intradermally (ID) on Day 0 followed by intraperitoneal (IP) injection of PBMCs (5×10^7 cells) on Day 4.
However, prior to the third (Study Day 24) and fourth (Study Day 28) doses, the tumor volumes were 1469±162 and 848±74 mm^3, respectively, representing a 36% and 63%, respectively, decrease in tumor volume with respect to the peak volume recorded on Study Day 21 (FIG. 19B). The tumors continued to decrease in size to the extent that on Day 42, the average tumor volume was 248±52 mm^3, an 89% decrease in the tumor volume (FIG. 19B).

[10] = Human FcRn transgenic mouse pharmacokinetic study; assay type: in vivo; details: human FcRn transgenic mice
Method: Three human mAbs were also evaluated in same test system for comparison and had terminal half-lives ranging from 58.7 to 102.7 hours.

[11] = system: CLL malignant B cells (CD20+/CD5+); experiment: Autologous depletion of malignant B cells in CLL primary patient PBMCs; assay type: cell-based, human
Method: Due to the limited patient sample availability, only 2 concentrations (50 ng/mL and 200 ng/mL) were tested. The percentages of CLL malignant B cells (CD19+/CD5+ or CD20+/CD5+) and T cells (CD19−/CD5+ or CD4+ and CD8+) were measured by flow cytometry prior to treatment and following treatment for 3 and 6 days.

Raji.luc lymphoma cells = experiment: Disseminated Raji.luc model in human PBMC-reconstituted mice, early treatment; details: 12 doses
Raji.luc cells = experiment: Disseminated Raji.luc model in human PBMC-reconstituted mice, established tumor; details: treatment from Study Day 15, 9 doses; DART-A 0.16 μg/kg to 0.5 mg/kg, Control DART 1 0.1 mg/kg

## Control DART 1: control DART capable of binding to fluorescein and CD3 [reference compound]
Raji/GF cells
  T cell redirected killing of target cells: did not mediate T cell redirected killing of target cells
CD20+ B cells [1]
  CD20+ B cell depletion: no B cell depletion was observed
CD20+ B cells [2]
  CD20+ B cell depletion: no B cell depletion was observed
Human T cells
  cytokine production: did not result in any detectable cytokine production
[3]
  T cell activation markers CD25 and CD69: did not mediate induction of T cell activation markers
[4]
  T cell activation markers CD25 and CD69: did not mediate induction of T cell activation markers
[5]
  T cell activation: fail to mediate human T cell activation
[6]
  granzyme B and perforin levels in CD8+ and CD4+ T cells: no upregulation of granzyme B or perforin was observed
[7]
  cells proliferating (CFSE dilution): no proliferation of CFSE-labeled T cells was observed
HBL-2 tumor cells [8]
  average tumor volume: approximately 1000 mm^3
Raji tumor cells
  average tumor volume: 2968.2±200.0 mm3
HBL-2 tumor cells [9]; Day 21 (2nd dose), treatment from Day 17, DART-A 0.5 mg/kg IV
  average tumor volume: 1185.6±138.7 mm^3
HBL-2 tumor cells [9]; Day 24 (3rd dose), treatment from Day 17
  average tumor volume: 2623.7±351.5 mm^3
[10]
  terminal half-life: 92.1 h
[11]; Day 3, 50 ng/mL
  CD4+: 3.08%
  CD8+: 1.81%
[11]; Day 3, 50 ng/mL, E:T = 1:23
  CD20+/CD5+: 73.5%
[11]; Day 3, 200 ng/mL
  CD4+: 3.23%
  CD8+: 1.62%
  CD20+/CD5+: 72.9%
[11]; Day 6, 50 ng/mL
  CD4+: 3.54%
  CD8+: 2.26%
  CD20+/CD5+: 74.9%
  CD25+/CD4+: 1.4%
  CD25+/CD8+: 20.6%
[11]; Day 6, 200 ng/mL
  CD4+: 2.79%
  CD8+: 1.82%
  CD20+/CD5+: 73.4%
  CD25+/CD4+: 1.4%
  CD25+/CD8+: 14.3%
[11]; through Day 6
  B cell killing or upregulation of CD25: no B cell killing or upregulation of CD25 was observed
Raji.luc lymphoma cells; 0.16 μg/kg to 0.5 mg/kg
  efficacy in dose-range finding study: rapid progression of Raji.luc tumor growth
Raji.luc lymphoma cells; 0.5 mg/kg IV
  Study Day by which all mice died or were humanely sacrificed: ≤ 53 Study Day
Raji.luc cells
  tumor burden / tumor progression, dose-range finding: slight delay of tumor progression
